# Source: patent US6737383B1, “Herbicidal oxadiazolidines” (priority 1999, dated 2004)
# Experiments:
# corn = experiment: Test B pre/postemergence corn; format: in vivo, Zea mays
# In short: (§1)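 Response is a visual 0-to-10 score relative to untreated plants, where 0 means no effect and 10 means complete control, taken twelve to sixteen days after application. Treatments went onto soil at planting and onto foliage of 1- to 4-leaf plants, using a surfactant-containing non-phytotoxic solvent.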
# giant foxtail = experiment: Test B pre/postemergence giant foxtail; format: in vivo, Setaria faberii
# In short: as §1
# wild oat = experiment: Test B pre/postemergence wild oat; format: in vivo, Avena fatua
# In short: as §1
# wheat = experiment: Test B pre/postemergence wheat; format: in vivo, Triticum aestivum
# In short: as §1
# rice = experiment: Test B flood test rice; format: in vivo, Oryza sativa
# In short: (§2)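 Read-out is a visual response score from 0 (no effect) to 10 (complete control), assigned by comparison with untreated controls. Treatment was applied at the 2-leaf stage, and plants stayed in the greenhouse for twelve to sixteen days before scoring.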
# purple nutsedge = experiment: Test B pre/postemergence purple nutsedge; format: in vivo, Cyperus rotundus
# In short: as §1
# sugar beet = experiment: Test B pre/postemergence sugar beet; format: in vivo, Beta vulgaris
# In short: as §1
# duck salad = experiment: Test B flood test duck salad; format: in vivo, Heteranthera limosa
# In short: as §2
# blackgrass = experiment: Test B pre/postemergence blackgrass; format: in vivo, Alopecurus myosuroides
# In short: as §1
# velvetleaf = experiment: Test B pre/postemergence velvetleaf; format: in vivo, Abutilon theophrasti
# In short: as §1
# bedstraw = experiment: Test B pre/postemergence bedstraw; format: in vivo, Galium aparine
# In short: as §1
# soybean = experiment: Test B pre/postemergence soybean; format: in vivo, Glycine max
# In short: as §1
# surinam grass = experiment: Test B pre/postemergence surinam grass; format: in vivo, Brachiaria decumbens
# In short: as §1
# pigweed = experiment: Test B pre/postemergence pigweed; format: in vivo, Amaranthus retroflexus
# In short: as §1
# cocklebur = experiment: Test B pre/postemergence cocklebur; format: in vivo, Xanthium strumarium
# In short: as §1
# crabgrass = experiment: Test B pre/postemergence crabgrass; format: in vivo, Digitaria sanguinalis
# In short: as §1
# [1] = Postemergence, Rate 125 g/ha, scale of 0 to 10 where 0 is no effect and 10 is complete control
# [2] = Preemergence, Rate 31 g/ha, visual rating, scale 0 to 10 (0 no effect, 10 complete control)
# [3] = Preemergence, Rate 62 g/ha, scale 0 to 10 (0 no effect, 10 complete control)
# [4] = Preemergence, Rate 125 g/ha, 0 is no effect, 10 is complete control
# [5] = Preemergence, Rate 250 g/ha, scale 0 to 10, 0 is no effect, 10 is complete control
# [6] = Preemergence, Rate 500 g/ha, scale 0 to 10 (0 no effect, 10 complete control)
# [7] = Rate 31 g/ha, Postemergence, scale 0 to 10
# [8] = Rate 62 g/ha, Postemergence, scale of 0 to 10 where 0 is no effect and 10 is complete control
# [9] = Rate 250 g/ha, Postemergence, scale 0 to 10, 0 is no effect, 10 is complete control
# [10] = Rate 500 g/ha, Postemergence, scale 0 to 10
# [11] = Postemergence (flood test species), Rate 125 g/ha, scale of 0 to 10 where 0 is no effect and 10 is complete control
# [12] = Rate 31 g/ha, Postemergence section (flood test species), scale 0 to 10
# [13] = Rate 62 g/ha, Postemergence section, flood test species, scale of 0 to 10 where 0 is no effect and 10 is complete control
# [14] = Rate 62 g/ha, headed Pre-emergence (flood test species), scale 0 to 10 (0 no effect, 10 complete control)
# [15] = Rate 125 g/ha, Pre-emergence, flood test species, scale 0 to 10 where 0 is no effect and 10 is complete control
# [16] = Rate 250 g/ha, Postemergence (flood test), scale 0 to 10, 0 is no effect, 10 is complete control
# [17] = Rate 250 g/ha, Pre-emergence, flood-test species, scale 0 to 10, 0 is no effect, 10 is complete control
# [18] = Rate 500 g/ha, headed Pre-emergence (flood test species), scale 0 to 10 (0 no effect, 10 complete control)
# [19] = Rate 500 g/ha, listed under Postemergence (flood test species), scale 0 to 10
smiles,measurement,setting,value
C=CCn1c(=O)on(C(=O)N(c2ccc(F)cc2)C(C)C)c1=O [Compound 146],Corn plant response rating,corn; [1],0
same,Corn plant response rating,corn; [2],0
same,Corn plant response rating,corn; [3],3
same,Corn plant response rating (0 to 10 scale),corn; [4],5
same,Corn plant response rating,corn; [5],8
same,Corn plant response rating,corn; [6],9
same,Corn plant response rating,corn; [7],0
same,Corn plant response rating,corn; [8],0
same,"Plant response rating, Corn",corn; [9],0
same,Corn plant response rating,corn; [10],0
same,Giant foxtail plant response rating,giant foxtail; [1],9
same,Giant foxtail plant response rating,giant foxtail; [2],9
same,Giant foxtail plant response rating,giant foxtail; [3],10
same,Giant foxtail plant response rating (0 to 10 scale),giant foxtail; [4],10
same,Giant foxtail plant response rating,giant foxtail; [5],10
same,Giant foxtail plant response rating,giant foxtail; [6],10
same,Giant foxtail plant response rating,giant foxtail; [7],3
same,Giant foxtail plant response rating,giant foxtail; [8],8
same,"Plant response rating, Giant foxtail",giant foxtail; [9],9
same,Giant foxtail plant response rating,giant foxtail; [10],9
same,Wild oats plant response rating,wild oat; [1],3
same,Wild oats plant response rating,wild oat; [2],1
same,Wild oats plant response rating,wild oat; [3],9
same,Wild oats plant response rating (0 to 10 scale),wild oat; [4],10
same,Wild oats plant response rating,wild oat; [5],10
same,Wild oats plant response rating,wild oat; [6],10
same,Wild oats plant response rating,wild oat; [8],2
same,"Plant response rating, Wild oats",wild oat; [9],6
same,Wild oats plant response rating,wild oat; [10],7
same,Wheat plant response rating,wheat; [1],2
same,Wheat plant response rating,wheat; [2],0
same,Wheat plant response rating,wheat; [3],2
same,Wheat plant response rating (0 to 10 scale),wheat; [4],2
same,Wheat plant response rating,wheat; [5],8
same,Wheat plant response rating,wheat; [6],8
same,Wheat plant response rating,wheat; [8],0
same,"Plant response rating, Wheat",wheat; [9],5
same,Wheat plant response rating,wheat; [10],6
same,Rice plant response rating,rice; [11],0
same,Rice plant response rating,rice; [12],0
same,Rice plant response rating,rice; [13],0
same,Rice plant response rating,rice; [14],0
same,Rice plant response rating,rice; [15],0
same,"Plant response rating, Rice",rice; [16],2
same,Rice plant response rating,rice; [17],0
same,"Plant response rating, Rice",rice; [18],0
same,Rice plant response rating,rice; [19],7
same,Nutsedge plant response rating,purple nutsedge; [1],0
same,Nutsedge plant response rating,purple nutsedge; [2],0
same,Nutsedge plant response rating,purple nutsedge; [3],0
same,Nutsedge plant response rating (0 to 10 scale),purple nutsedge; [4],0
same,Nutsedge plant response rating,purple nutsedge; [5],0
same,Nutsedge plant response rating,purple nutsedge; [6],3
same,Nutsedge plant response rating,purple nutsedge; [7],0
same,Nutsedge plant response rating,purple nutsedge; [8],0
same,"Plant response rating, Nutsedge",purple nutsedge; [9],0
same,Nutsedge plant response rating,purple nutsedge; [10],6
same,Sugarbeets plant response rating,sugar beet; [1],3
same,Sugarbeets plant response rating,sugar beet; [2],5
same,Sugarbeets plant response rating,sugar beet; [3],8
same,Sugarbeets plant response rating (0 to 10 scale),sugar beet; [4],9
same,Sugarbeets plant response rating,sugar beet; [5],10
same,Sugarbeets plant response rating,sugar beet; [6],10
same,Sugarbeets plant response rating,sugar beet; [8],1
same,"Plant response rating, Sugarbeets",sugar beet; [9],4
same,Sugarbeets plant response rating,sugar beet; [10],6
same,Ducksalad plant response rating,duck salad; [11],3
same,Ducksalad plant response rating,duck salad; [12],0
same,Ducksalad plant response rating,duck salad; [13],2
same,Ducksalad plant response rating,duck salad; [14],0
same,Ducksalad plant response rating,duck salad; [15],0
same,"Plant response rating, Ducksalad",duck salad; [16],5
same,Ducksalad plant response rating,duck salad; [17],0
same,"Plant response rating, Ducksalad",duck salad; [18],1
same,Ducksalad plant response rating,duck salad; [19],6
same,Blackgrass plant response rating,blackgrass; [1],8
same,Blackgrass plant response rating,blackgrass; [2],7
same,Blackgrass plant response rating,blackgrass; [3],8
same,Blackgrass plant response rating (0 to 10 scale),blackgrass; [4],10
same,Blackgrass plant response rating,blackgrass; [5],10
same,Blackgrass plant response rating,blackgrass; [6],10
same,Blackgrass plant response rating,blackgrass; [7],4
same,Blackgrass plant response rating,blackgrass; [8],8
same,"Plant response rating, Blackgrass",blackgrass; [9],8
same,Blackgrass plant response rating,blackgrass; [10],8
same,Velvetleaf plant response rating,velvetleaf; [1],2
same,Velvetleaf plant response rating,velvetleaf; [2],3
same,Velvetleaf plant response rating,velvetleaf; [3],7
same,Velvetleaf plant response rating (0 to 10 scale),velvetleaf; [4],7
same,Velvetleaf plant response rating,velvetleaf; [5],8
same,Velvetleaf plant response rating,velvetleaf; [6],8
same,Velvetleaf plant response rating,velvetleaf; [8],0
same,"Plant response rating, Velvetleaf",velvetleaf; [9],6
same,Velvetleaf plant response rating,velvetleaf; [10],6
same,Bedstraw plant response rating,bedstraw; [1],6
same,Bedstraw plant response rating,bedstraw; [2],0
same,Bedstraw plant response rating,bedstraw; [3],9
same,Bedstraw plant response rating (0 to 10 scale),bedstraw; [4],9
same,Bedstraw plant response rating,bedstraw; [5],10
same,Bedstraw plant response rating,bedstraw; [6],7
same,Bedstraw plant response rating,bedstraw; [7],0
same,Bedstraw plant response rating,bedstraw; [8],2
same,"Plant response rating, Bedstraw",bedstraw; [9],7
same,Bedstraw plant response rating,"bedstraw; Rate 500 g/ha, Postemergence, scale 0 to 10, 0 no effect, 10 complete control",8
same,Soybean plant response rating,soybean; [1],6
same,Soybean plant response rating,soybean; [2],0
same,Soybean plant response rating,soybean; [3],0
same,Soybean plant response rating (0 to 10 scale),soybean; [4],0
same,Soybean plant response rating,soybean; [5],2
same,Soybean plant response rating,soybean; [6],4
same,Soybean plant response rating,soybean; [8],3
same,"Plant response rating, Soybean",soybean; [9],6
same,Soybean plant response rating,soybean; [10],8
same,B. signalgrass plant response rating,surinam grass; [1],8
same,B. signalgrass plant response rating,surinam grass; [2],7
same,B. signalgrass plant response rating,surinam grass; [3],9
same,B. signalgrass plant response rating (0 to 10 scale),surinam grass; [4],9
same,B. signalgrass plant response rating,surinam grass; [5],10
same,B. signalgrass plant response rating,surinam grass; [6],10
same,B. signalgrass plant response rating,surinam grass; [7],0
same,B. signalgrass plant response rating,surinam grass; [8],4
same,"Plant response rating, B. signalgrass",surinam grass; [9],8
same,B. signalgrass plant response rating,"surinam grass; Rate 500 g/ha, Postemergence, scale of 0 to 10 where 0 is no effect and 10 is complete control",9
same,Redroot pigweed plant response rating,pigweed; [1],6
same,Redroot pigweed plant response rating,pigweed; [2],10
same,Redroot pigweed plant response rating,pigweed; [3],10
same,Redroot pigweed plant response rating (0 to 10 scale),pigweed; [4],10
same,Redroot pigweed plant response rating,pigweed; [5],10
same,Redroot pigweed plant response rating,pigweed; [6],10
same,Redroot pigweed plant response rating,pigweed; [7],0
same,Redroot pigweed plant response rating,pigweed; [8],4
same,"Plant response rating, Redroot pigweed",pigweed; [9],6
same,Redroot pigweed plant response rating,pigweed; [10],8
same,Cocklebur plant response rating,cocklebur; [1],2
same,Cocklebur plant response rating,cocklebur; [2],0
same,Cocklebur plant response rating,cocklebur; [3],0
same,Cocklebur plant response rating (0 to 10 scale),cocklebur; [4],0
same,Cocklebur plant response rating,cocklebur; [5],0
same,Cocklebur plant response rating,cocklebur; [6],0
same,Cocklebur plant response rating,cocklebur; [7],0
same,Cocklebur plant response rating,cocklebur; [8],2
same,"Plant response rating, Cocklebur",cocklebur; [9],3
same,Cocklebur plant response rating,cocklebur; [10],4
same,Crabgrass plant response rating,crabgrass; [1],9
same,Crabgrass plant response rating,crabgrass; [2],5
same,Crabgrass plant response rating,crabgrass; [3],8
same,Crabgrass plant response rating (0 to 10 scale),crabgrass; [4],8
same,Crabgrass plant response rating,crabgrass; [5],9
same,Crabgrass plant response rating,crabgrass; [6],10
same,Crabgrass plant response rating,crabgrass; [7],5
same,Crabgrass plant response rating,crabgrass; [8],8
same,"Plant response rating, Crabgrass",crabgrass; [9],9
same,Crabgrass plant response rating,crabgrass; [10],9
